The numbers were not newly measured in patent US8163169B2, “Hydroconversion processes employing multi-metallic catalysts and method for making thereof” (Chevron U.S.A. Inc., priority 2007, dated 2012), which cites them from elsewhere.

This data set has as its system rats. To be noted: single oral dose to rats.

One may read the LD50 as the dose at which mortality reaches 50%. Take `O=CC(=O)O` [glyoxylic]: the LD50 is listed as 3000 mg/kg.
